Holding throughout (assay type): cell-based
One test has as its target 5-HT2A (Homo sapiens, UniProt P28223). In words: GPCR Calcium Flux assay (FLIPR tetra, Eurofins), 5-HT2A. To be noted: for IC50: 8 concentrations 10 to 0.0006 uM, read-out: 50% inhibitory concentration (IC50) 5-HT2A; for inhibition at 10 µM: single concentration of 10 uM, read-out: inhibition rate (%) 5-HT2A. As to the method:
(§1) In order to confirm whether the compounds prepared in the above Examples act as an agonist or antagonist against GPCR Target, Calcium Flux assay was performed in an assay plate in which the compounds prepared in the Examples, vehicle controls, and reference compounds were added, using a Fluorometric imaging plate reader (FLIPR tetra) equipment.
(§2) Calcium Flux assay was evaluated by entrusting the GPCR profiler assay in Safety panel assays with Eurofins. By using the Fluo-8AM calcium dye, excitation was measured at a wavelength in the range of 470 to 495 nm and Emission was measured at a wavelength in the range of 515-575 nm. GPCR Assay Buffer for Calcium Flux assay was prepared by adding 20 mM of HEPES and 2.5 mM of Probenecid to Hanks Balanced Salt Solution (HBSS) to have pH 7.4. The Compounds of Examples for evaluation of the GPCR were diluted with DMSO at a concentration of 10 mM to make a stock and then prepared by diluting in the GPCR Assay Buffer at the concentration equivalent to three times the final concentration. First, for the evaluation of GPCRs, the inhibitory activity of the compounds of the Examples was evaluated at a single concentration of 10 uM, and then the respective selected targets were four fold-diluted from 10 uM to the low side to calculate 50% inhibitory concentration (IC50), prepared at the total 8 concentrations of 10, 2.5, 0.62, 0.15, 0.04, 0.01, 0.0024, 0.0006 uM, and Calcium Flux assay for GPCR was conducted. In order to evaluate the agonist and antagonist, % inhibition rate against GPCR activity before and after treatment of the compounds and the inhibitory activity of the compounds of the Examples were determined.
(§3) As a result, when the efficacy of […] and acetylcholine of the compounds prepared in the Examples was 100%, the inhibition rate (%) at a single concentration of 10 uM was evaluated and shown in Table 8.

A further test deals with T1, M1 (Homo sapiens, UniProt P11229).
T1 sequence (P11229 1-460): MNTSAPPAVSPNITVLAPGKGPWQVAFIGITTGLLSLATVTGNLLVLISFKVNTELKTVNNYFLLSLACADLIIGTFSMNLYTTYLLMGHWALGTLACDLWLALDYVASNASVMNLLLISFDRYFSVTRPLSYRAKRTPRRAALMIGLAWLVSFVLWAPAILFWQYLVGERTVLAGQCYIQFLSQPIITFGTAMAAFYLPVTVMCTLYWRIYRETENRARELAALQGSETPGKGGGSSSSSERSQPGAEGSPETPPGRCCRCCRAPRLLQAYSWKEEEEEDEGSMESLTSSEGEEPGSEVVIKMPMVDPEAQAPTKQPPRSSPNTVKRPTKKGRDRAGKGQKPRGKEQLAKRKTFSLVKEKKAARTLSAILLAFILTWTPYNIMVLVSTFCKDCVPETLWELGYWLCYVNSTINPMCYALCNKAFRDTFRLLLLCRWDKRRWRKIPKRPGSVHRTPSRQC
In words: GPCR Calcium Flux assay (FLIPR tetra, Eurofins), M1. The conditions noted are these: for IC50: 8 concentrations 10 to 0.0006 uM, read-out: 50% inhibitory concentration (IC50) M1; for inhibition at 10 µM: single concentration of 10 uM, read-out: inhibition rate (%) M1. As to the method:
as §1, §2, §3

The target of another test is T2, M2 (Homo sapiens, UniProt P08172).
T2 sequence (P08172 1-466): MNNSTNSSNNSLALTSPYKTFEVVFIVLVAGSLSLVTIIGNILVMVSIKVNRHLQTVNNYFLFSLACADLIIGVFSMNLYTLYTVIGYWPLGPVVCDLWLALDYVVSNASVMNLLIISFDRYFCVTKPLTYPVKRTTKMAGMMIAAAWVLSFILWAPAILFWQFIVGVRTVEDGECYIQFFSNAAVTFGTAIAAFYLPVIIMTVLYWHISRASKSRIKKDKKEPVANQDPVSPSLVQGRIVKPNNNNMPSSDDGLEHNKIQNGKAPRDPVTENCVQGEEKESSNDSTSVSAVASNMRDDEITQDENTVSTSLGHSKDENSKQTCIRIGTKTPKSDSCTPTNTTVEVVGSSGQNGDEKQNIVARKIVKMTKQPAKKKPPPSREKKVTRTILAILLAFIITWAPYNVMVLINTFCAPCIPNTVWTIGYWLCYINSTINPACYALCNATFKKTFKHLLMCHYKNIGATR
In words: GPCR Calcium Flux assay (FLIPR tetra, Eurofins), M2. The conditions noted are these: for IC50: 8 concentrations 10 to 0.0006 uM, read-out: 50% inhibitory concentration (IC50) M2; for inhibition at 10 µM: single concentration of 10 uM, read-out: inhibition rate (%) M2. Here is the method: as §1, §2, §3

Counter-ions that a name gives are not always drawn.

5-HT2A, sequence (P28223 whole entry): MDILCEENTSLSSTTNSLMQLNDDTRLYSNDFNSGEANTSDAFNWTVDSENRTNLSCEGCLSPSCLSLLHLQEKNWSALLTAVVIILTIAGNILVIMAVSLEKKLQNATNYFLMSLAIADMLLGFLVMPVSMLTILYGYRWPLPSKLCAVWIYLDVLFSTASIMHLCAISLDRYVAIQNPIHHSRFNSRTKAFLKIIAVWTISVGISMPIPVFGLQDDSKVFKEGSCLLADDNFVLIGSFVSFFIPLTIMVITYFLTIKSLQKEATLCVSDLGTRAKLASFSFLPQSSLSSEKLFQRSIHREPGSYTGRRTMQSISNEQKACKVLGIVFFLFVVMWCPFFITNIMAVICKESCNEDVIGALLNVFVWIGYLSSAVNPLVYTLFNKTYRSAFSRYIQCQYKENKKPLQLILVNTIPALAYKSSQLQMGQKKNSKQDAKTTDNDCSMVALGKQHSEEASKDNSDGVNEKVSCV

For the compound `CNCc1cn(S(=O)(=O)c2cccc(C(F)(F)F)c2)c(-c2c(F)cc(F)cc2F)c1OC` [Example 24, 1-(1-((3-trifluoromethylphenyl)sulfonyl)-4-methoxy-5-(2,4,6-trifluorophenyl)-1H-pyrrol-3-yl)-N-methylmethanamine hydrochloride], the IC50 was 62 nM at 5-HT2A, greater than 1000 nM at M1 and greater than 10000 nM at M2. The results for the inhibition at 10 µM at 5-HT2A, on M1 and at M2 were 62.2%, 93.4% and 22%, respectively.
Regarding `CNCc1cn(S(=O)(=O)c2cccc(OC)c2)c(-c2ccc(F)cc2F)c1OC` [Example 11, 1-(5-(2,4-difluorophenyl)-1-((3-methoxyphenyl)sulfonyl)-4-methoxy-1H-pyrrol-3-yl)-N-methylmethanamine hydrochloride], the values for the IC50 on 5-HT2A and at M1 were 200 nM and 1800 nM, respectively. Moreover, the inhibition at 10 µM on 5-HT2A was determined as 102%; at M1, 97.2%; on M2, 79.4%.
With `CNCc1cn(S(=O)(=O)c2cccc(OC(F)F)c2)c(-c2ccc(F)cc2F)c1OC` [Example 12, 1-(5-(2,4-difluorophenyl)-1-((3-difluoromethoxyphenyl)sulfonyl)-4-methoxy-1H-pyrrol-3-yl)-N-methylmethanamine hydrochloride], the inhibition at 10 µM on 5-HT2A was found to be 101%; at M1, 93.1%; at M2, 28.7%.
As for `CNCc1cn(S(=O)(=O)c2cccc(Cl)c2)c(-c2c(F)ccc(F)c2F)c1OC` [Example 28, 1-(1-((3-chlorophenyl)sulfonyl)-4-methoxy-5-(2,3,6-trifluorophenyl)-1H-pyrrol-3-yl)-N-methylmethanamine hydrochloride], the values for the IC50 on 5-HT2A and on M1 were 67 nM and 550 nM, respectively. Further, the inhibition at 10 µM at 5-HT2A was determined as 97.6%; on M1, 99.4%; on M2 it was 61.9%.
`CNCc1cn(S(=O)(=O)c2cccc(C(F)(F)F)c2)c(-c2ccc(F)cc2F)c1OC` [Example 9, 1-(5-(2,4-difluorophenyl)-1-((3-(trifluoromethyl)phenyl)sulfonyl)-4-methoxy-1H-pyrrol-3-yl)-N-methylmethanamine hydrochloride]: the inhibition at 10 µM was 61.1% on 5-HT2A, 74.7% at M1 and 18.3% at M2.
For `CNCc1cn(S(=O)(=O)c2cccc(F)c2)c(-c2c(F)cccc2F)c1OC` [Example 13, 1-(5-(2,6-difluorophenyl)-1-((3-fluorophenyl)sulfonyl)-4-methoxy-1H-pyrrol-3-yl)-N-methylmethanamine hydrochloride], the IC50 stood at 76 nM at 5-HT2A, 110 nM on M1 and 510 nM on M2. The inhibition at 10 µM on 5-HT2A was found to be 102%; on M1, 100%; at M2 it was 99.4%.
For `CNCc1cn(S(=O)(=O)c2cccc(F)c2)c(-c2cc(F)ccc2F)c1OC` [Example 31, 1-(5-(2,5-difluorophenyl)-1-((3-fluorophenyl)sulfonyl)-4-methoxy-1H-pyrrol-3-yl)-N-methylmethanamine hydrochloride], the IC50 at 5-HT2A turned out to be 42 nM; at M1, 73 nM. For the same compound, the figures for the inhibition at 10 µM at 5-HT2A, at M1 and at M2 were 101%, 100% and 98.6%, respectively.
Regarding `CNCc1cn(S(=O)(=O)c2cccc(C(F)(F)F)c2)c(-c2c(F)cccc2F)c1OC` [Example 15, 1-(5-(2,6-difluorophenyl)-1-((3-(trifluoromethyl)phenyl)sulfonyl)-4-methoxy-1H-pyrrol-3-yl)-N-methylmethanamine hydrochloride], the inhibition at 10 µM on 5-HT2A is 30.1%; on M1, 87.1%; at M2 it was 62.1%.
